In patent publication US11873267B2, “Functionalized N,N-dialkylamino phenyl ethers and their method of use” (Temple University-Of The Commonwealth System of Higher …, priority 2016, dated 2024):
Structures can show the parent of a compound that is named as a salt.

Assays:
[1] = tested on: Gaucher patient fibroblasts (Coreill Institute, GM08760); test: GPN induced calcium release phenotypic assay on Gaucher patient fibroblasts; type: cell-based, human; conditions: for Maximal % Change in GPN Response: ratio of GPN response with drug / without drug x 100; for EC50: Homo sapiens, Fibroblast, 12-point dilution curve in triplicate
[2] = tested on: Wild-type patient fibroblasts (Coriell Institute, GM 005659); conditions: wild type patient cells
Experimental: Gaucher patient fibroblasts (Coreill Institute, GM08760) were cultured in EMEM with 15% FBS, 1% Pen/Strep at 37° C./5% CO2. Wild-type patient fibroblasts (Coriell Institute, GM 005659) were used as a control cell line. Cells are plated with a MultiFlo dispenser (800 cells/well in 30 μL of complete growth media) in black/clear bottom 384-well plates and cultured for 24 hours at 37° C., 5% CO2. Compounds of the disclosure are then added to the cells (12 point dose response curve, 150 nM to 30 uM final compound concentration using a 5.0 μL of a 7× stock solution (1.05 μM to 210 μM)) under sterile conditions and continued in culture for 72 hours at 37° C., 5% CO2. […] The data from each well were normalized with basal fluorescence by dividing the maximum fluorescence over the entire real time reading by the initial basal fluorescence.
Cells (800 cells/well) were plated with a MultiFlo dispenser (BioTek) and cultured for 24 h at 37° C., 5% CO2. […] Cells were loaded with Screen Quest™ Fluo-8 No Wash Calcium mix (ATT Bio) and analyzed for changes in response to GPN. The data from each well were normalized with basal fluorescence by dividing the maximum fluorescence over the entire real time reading by the initial basal fluorescence. […] EC50 and Hill slope values are determined using a four-parameter dose-response (variable slope) equation in GraphPad Prism.

[3] = tested on: β-Glucocerebrosidase (GCase); test: β-Glucocerebrosidase (GCase) activity in lysates of compound-treated Gaucher patient fibroblasts (4-MUG substrate); type: cell-based, human; conditions: 10 μM, 3 days, Gaucher patient fibroblast lysates, no change = 1
Experimental: Cellular lysates were prepared from compound treated cells and non-treated cells were included as a control. β-Glucocerebrosidase (GCase) activity was directly measured from lysates prepared from treated cells using a fluorescent substrate 4-methylumbelliferyl-β-D-glucopyranoside (MUG). Cells were washed 3× with phosphate-buffered saline (PBS) and detached by scraping. After centrifugation, The pellets were frozen on dry ice, thawed and lysed in McIlvaine (MI) buffer (100 mM sodium citrate, 200 mM sodium phosphate dibasic, 0.25% sodium taurocholate, and 0.1% Triton X-100, pH 5.2 containing protease inhibitors). Lysates are incubated with 3.0 mM 4-methylumbeliferryl-β-glucoside (4-MUG) substrate in MI buffer (50 μL) at 37° C. for 60 minutes. Reactions were stopped by addition of 0.4 M glycine, pH 10.6 (70 μL). Fluorescence was measured on a Clariostar plate reader (BMG Labtech) for one second per well using 355 nm excitation and 460 nm emission. Total protein was determined with the Bradford protein assay kit (BioRad) according to the manufacturer's instructions. The GCase activity measured after compound treatment is normalized to non-treated cells and expressed as relative activity where no change in GCAse activity is equal 1 (FIG. 3).

[4] = Gaucher patient cells, 72 hours compound treatment

Structure (SMILES) | Maximal % Change in GPN Response [1, 4] [%] | EC50 [1, 4] [µM] | increase in calcium response compared with 0.1% DMSO treated Gaucher patient cells ([1]; 72 hours compound treatment, GPN response) [%] | activity to increase lysosomal calcium signaling (Prestwick Chemical Library screen) ([1]; Gaucher patient cells, 72 hours, confirmed in triplicate) | increase in GPN-induced calcium response [2] | GCase activity relative to non-treated cells [3]
CC(C)C(C(=O)c1ccc(OCCN(C)C)cc1)c1ccccc1 (stereo not drawn) [Example 11, 1-(4-(2-Dimethylaminoethoxy)-phenyl)-3-methyl-2-phenylbutan-1-one] | 54 | 3.3 | – | – | – | –
CC/C(=C(\c1ccccc1)c1ccc(OCCN(C)C)cc1)c1ccccc1 [Tamoxifen, reference compound] | – | – | 200±50 | active compound | 40+/−20% | –
CCCCC(C(=O)c1ccc(OCCN(C)C)cc1)c1ccccc1C(C)C (stereo not drawn) [Example 18, 1-(4-(2-(Dimethylamino)ethoxy)phenyl)-2-(2-isopropylphenyl)hexan-1-one] | 233 | 0.33 | – | – | – | –
C/C(=C/c1ccc(OCCN2CCCC2)cc1)c1ccccc1 [Example 5, (Z)-1-(2-(4-(2-phenylprop-1-en-1-yl)phenoxy)ethyl)pyrrolidine] | 72 | 2.1 | – | – | – | –
CC/C(=C\c1ccc(OCCN(C)C)cc1)c1ccccc1 [Example 1, (E)-N,N-Dimethyl-2-(4-(2-(phenyl)but-1-en-1-yl)phenoxy)ethan-1-amine] | 70 | 6 | – | – | – | –
C=C(C)c1ccccc1C(CCCC)C(=O)c1ccc(OCCN(C)C)cc1 (stereo not drawn) [Example 17] | 275 | 2.2 | – | – | – | –
CC/C(=C\c1ccccc1)c1ccc(OCCN(C)C)cc1 [Example 9, (E)-N,N-Dimethyl-2-(4-(1-phenylbut-1-en-2-yl)phenoxy)ethan-1-amine] | 53 | 3 | – | – | – | –
CC/C(=C\c1ccc(OCCN2CCCC2)cc1)c1ccccc1 [Example 3, (E)-1-(2-(4-(2-phenylbut-1-en-1-yl)phenoxy)ethyl)pyrrolidine] | 175 | 5.3 | – | – | – | –
CCCCC(C(=O)c1ccc(OCCN(C)C)cc1)c1ccccc1 (stereo not drawn) [MC150235, 1-(4-(2-(Dimethylamino)ethoxy)phenyl)-2-phenylhexan-1-one] | 87 | 2.4 | – | – | – | increase in GCase activity
CCCCC(C(=O)c1ccc(OCCN(C)C)cc1)c1ccccc1CC (stereo not drawn) [Example 16, 1-(4-(2-(dimethylamino)ethoxy)phenyl)-2-(2-ethylphenyl)hexan-1-one] | 138 | 0.65 | – | – | – | –
CC(C)CCC(C(=O)c1ccc(OCCN(C)C)cc1)c1ccccc1 (stereo not drawn) [Example 13] | 191 | 1.5 | – | – | – | –
C=Cc1ccccc1C(CCCC)C(=O)c1ccc(OCCN(C)C)cc1 (stereo not drawn) [Example 15, 1-(4-(2-(dimethylamino)ethoxy)phenyl)-2-(2-vinylphenyl)hexan-1-one] | 217 | 2.7 | – | – | – | –
CC(C)CC(C(=O)c1ccc(OCCN(C)C)cc1)c1ccccc1 (stereo not drawn) [Example 14, 1-(4-(2-(Dimethylamino)ethoxy)phenyl)-4-methyl-2-phenylpentan-1-one] | 108 | 0.7 | – | – | – | –
CCC(Cc1ccc(OCCN(C)C)cc1)c1ccccc1 (stereo not drawn) [MC210155, N,N-Dimethyl-2-(4-(2-phenylbutyl)phenoxy)ethan-1-amine trifluoroacetate] | 154 | 4.8 | – | – | – | increase in GCase activity
CCCCC(=Cc1ccc(OCCN(C)C)cc1)c1ccccc1 (stereo in doubt) [Example 4, (Z)—N,N-dimethyl-2-(4-(2-phenylhex-1-en-1-yl)phenoxy)ethan-1-amine trifluoroacetate] | 56 | 7.2 | – | – | – | –
CC/C(=C/c1ccc(OCCN(C)C)cc1)c1ccc([N+](=O)[O-])cc1 [Example 6, (Z)—N,N-Dimethyl-2-(4-(2-(4-nitrophenyl)but-1-en-1-yl)phenoxy) ethan-1-amine] | 47 | 4.3 | – | – | – | –
CC/C(=C\c1ccccc1)c1ccc(OCCN2CCCC2)cc1 [Example 10, (E)-1-(2-(4-(1-Phenylbut-1-en-2-yl)phenoxy)ethyl)pyrrolidine] | 48 | 1.1 | – | – | – | –
CC/C(=C/c1ccc(OCCN(C)C)cc1)c1ccccc1 [Example 2, (Z)—N,N-Dimethyl-2-(4-(2-(phenyl)but-1-en-1-yl)phenoxy)ethan-1-amine trifluoroacetate] | 62 | 14.1 | – | – | – | –
